Like-named read-outs stand apart in the source and are kept apart here.
Test system: microbial inhibition test (Premi®Test)
Procedure: Urine samples were examined using microbial inhibition test ampoules produced according to the methods described in EP 0005891 with the nutrients present in the agar. Said test is also known as Premi®Test (commercially available from DSM, Delft, The Netherlands).
Samples were examined as described in Example 1. CaCl2.2H2O was dissolved in water or chicken meat fluid, in concentrations of 0, 0.0078, 0.0156, 0.0312, 0.0625, 0.125, 0.25, 0.5 and 1 M. The samples were added to the test ampoules. After a pre-incubation for 20 minutes at room temperature the sample was removed and the test was incubated in a water bath at 64±1° C. following the instructions of the manufacturer. The results were obtained after 165 minutes for chicken meat fluid and 185 minutes in case of water, by reading the change of color from purple to yellow.

[Ca+2].[Cl-].[Cl-] [CaCl2, Calcium Chloride]
Color observed in microbial inhibition test (CaCl2 0.0078 M in chicken meat fluid, read after 165 minutes): Yellow | Color observed in microbial inhibition test (CaCl2 0.0078 M in water, read after 185 minutes): Yellow | Color observed in microbial inhibition test (CaCl2 0.0156 M in chicken meat fluid, read after 165 minutes): Yellow | Color observed in microbial inhibition test (CaCl2 0.0156 M in water, read after 185 minutes): Yellow | Color observed in microbial inhibition test (CaCl2 0.0312 M in chicken meat fluid, read after 165 minutes): Yellow | Color observed in microbial inhibition test (CaCl2 0.0312 M in water, read after 185 minutes): Yellow | Color observed in microbial inhibition test (CaCl2 0.0625 M in chicken meat fluid, read after 165 minutes): Yellow | Color observed in microbial inhibition test (CaCl2 0.0625 M in water, read after 185 minutes): Yellow | Color observed in microbial inhibition test (CaCl2 0.125 M in chicken meat fluid, read after 165 minutes): Yellow | Color observed in microbial inhibition test (CaCl2 0.125 M in water, read after 185 minutes): Yellow | Color observed in microbial inhibition test (CaCl2 0.25 M in chicken meat fluid, read after 165 minutes): Yellow | Color observed in microbial inhibition test (CaCl2 0.25 M in water, read after 185 minutes): Yellow | Color observed in microbial inhibition test (CaCl2 0.5 M in chicken meat fluid, read after 165 minutes): Yellow | Color observed in microbial inhibition test (CaCl2 0.5 M in water, read after 185 minutes): Purple | Color observed in microbial inhibition test (CaCl2 1 M in chicken meat fluid, read after 165 minutes): Yellow | Color observed in microbial inhibition test (CaCl2 1 M in water, read after 185 minutes): Purple | Concentration of CaCl2 with no inhibition (in chicken meat fluid): up to 1 M | Concentration of CaCl2 that does not influence the test results (in water): up to 0.25 M

From US7932051B2, “Blood and urine test” (R-Biopharm AG, priority 2003, dated 2011)
